Like-named read-outs stand apart in the source and are kept apart here.
Key:
[1] = mouse model; combination with cannabidiol; cited from earlier work
pharynx::SLC6A4 = assay: ScreenChip pharyngeal pumping frequency in SLC6A4 transgenic C. elegans; format: in vivo; conditions: 10 mM serotonin, first-day adults, 20 minutes incubation; FIG. 2B
From the text: Provided herein are transgenic nematodes and methods of preparing same for expression, as well as methods for using the same drug discovery for human therapeutic targets, such as that illustrated in FIG. 1 and described in more detail herein, wherein the therapeutic target gene is first optimized for expression in a host nematode and then incorporated into the genome of the nematode. Human Solute Carrier Family 6 Member 4 (SLC6A4) is known to transport serotonin out of the synaptic space, thus terminating the action of serotonin. […] Inhibitors of SLC6A4, selective serotonin reuptake inhibitors (SSRls), are commonly used to treat major depressive disorder and anxiety but are also known to cause many unpleasant side-effects. New SSRls can be discovered using the SLC6A4 overexpressing C. elegans transgenic nematodes described in this illustrative example. As shown below, C. elegans transgenic animals overexpressing human SLC6A4 in the pharyngeal muscle show a decrease in pumping frequency when stimulated to pump by food (a mild stimulus) as compared to the wildtype. These animals can be screened to identify novel SSRls. […] Each EPG recording is two minutes in duration and the experiment is replicated in triplicate on different days. […]

STXBP1(R406H) = conditions: strain containing the R406H variant exposed to trehalose; cited from earlier work
C. elegans = assay: phenotypic assay (% adult survival); format: in vivo
DAF-12 [2] = molecular target: T1, DAF-12 (Caenorhabditis elegans, UniProt G5EFF5); assay: lin-42::GFP reporter agonist response; format: in vivo, C. elegans
T1 construct: endogenous in cells; host or cells: whole C. elegans animals carrying lin-42::GFP or mtl-1::GFP promoter-fusion reporters
T1 sequence (G5EFF5 1-753): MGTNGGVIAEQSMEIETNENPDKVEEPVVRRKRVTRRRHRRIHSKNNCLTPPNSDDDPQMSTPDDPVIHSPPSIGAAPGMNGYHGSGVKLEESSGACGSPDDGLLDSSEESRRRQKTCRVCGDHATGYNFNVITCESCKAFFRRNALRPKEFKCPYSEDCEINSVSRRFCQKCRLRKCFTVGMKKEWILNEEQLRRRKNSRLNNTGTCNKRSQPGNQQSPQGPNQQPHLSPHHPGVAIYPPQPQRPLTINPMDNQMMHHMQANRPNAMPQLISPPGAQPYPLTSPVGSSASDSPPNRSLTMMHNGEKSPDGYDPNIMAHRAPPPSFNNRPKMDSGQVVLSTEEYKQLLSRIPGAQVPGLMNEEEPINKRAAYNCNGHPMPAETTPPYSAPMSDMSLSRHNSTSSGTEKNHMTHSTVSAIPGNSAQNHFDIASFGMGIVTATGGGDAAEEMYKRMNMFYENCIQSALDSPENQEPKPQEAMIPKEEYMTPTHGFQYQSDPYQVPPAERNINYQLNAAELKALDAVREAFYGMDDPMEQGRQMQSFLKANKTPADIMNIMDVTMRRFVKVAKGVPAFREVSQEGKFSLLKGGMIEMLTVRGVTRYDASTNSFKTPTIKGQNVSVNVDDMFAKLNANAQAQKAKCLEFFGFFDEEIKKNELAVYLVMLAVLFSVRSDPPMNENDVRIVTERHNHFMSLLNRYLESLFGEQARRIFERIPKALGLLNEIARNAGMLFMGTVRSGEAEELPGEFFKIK
From the text: (§1) Chimeric proteins made with the daf-12 nuclear hormone receptor (NHR) can be used for discovery of agonist and antagonist of human NHRs and detect ligands of human NHRs. In C. elegans, the daf-12 protein activity is a key regulator of development. When daf-12 is activated by dafachronic acid under normal growth conditions, animals will proceed to their reproductive life stage. However, when animals face unfavorable conditions, dafachronic acid is not produced and the dauer program is activated leading animals into a stress-resistant arrested state. The unfavorable conditions can be mimicked by treatment with a DAF-12 antagonist, dafadine. Dafadine treatment overcomes the growth condition signal and animals enter the arrested state. Reporter lines can be used to monitor daf-12 chimera activity. In order to create reporter lines for agonist and antagonist discovery, the transcriptional response to treatment with dafachronic acid or dafadine was determined. Dauer animals were treated with 500 nM dafachronic acid and harvested for RNA preparation after four hours of exposure. RNA samples were processed and sent for RNA sequence analysis. […]
(§2) In this illustrative example, animals in the first larval stage were treated with 100uM dafadine for four hours and harvested for RNA preparation and analysis. Two reporter lines were identified by observation of fluorescence after drug treatment. […]

DAF-12 [3] = molecular target: T1, DAF-12; assay: mtl-1::GFP reporter antagonist response; format: in vivo, C. elegans
From the text: as §1, §2

For `NC(=O)N1c2ccccc2C=Cc2ccccc21` [carbamazepine], the “interaction with CBD” value [1] is given as “antagonize”.
In the case of `CC[C@@H](C(N)=O)N1CCCC1=O` [levetiracetam], the “interaction with CBD” value [1] is given as “acts synergistically”.
In the case of `NCCc1c[nH]c2ccc(O)cc12` [serotonin, 5-Hydroxytryptamine], the “rate of pharyngeal pumping in SLC6A4 line” value (pharynx::SLC6A4) is reported as “restored”.
For `OC[C@H]1O[C@H](O[C@H]2O[C@H](CO)[C@@H](O)[C@H](O)[C@H]2O)[C@H](O)[C@@H](O)[C@@H]1O` [trehalose], the “levels of aldicarb-induced paralysis” value (STXBP1(R406H)) is listed as “increase to wild-type levels”.
In the case of dafachronic acid, the EC50 (C. elegans; dafachronic acid, FIG. 3E, read-out: EC50, animal's phenotypic response) is reported as 17 nM, the “sensitivity of reporter versus phenotypic assay” value (DAF-12 [2]; lin-42::GFP reporter vs phenotype) is reported as “at least 40 x” and the EC50 (DAF-12 [2]; titrated with dafachronic acid, FIG. 3D) is reported as ~0.49 nM.
In the case of dafadine, the “sensitivity of reporter versus phenotypic assay” value (DAF-12 [3]; mtl-1::GFP reporter vs phenotypic assay) is reported as 9 x, the EC50 (DAF-12 [3]; titrated with dafadine, FIG. 3C) is reported as 5200 nM and the EC50 (C. elegans; dafadine, read-out: EC50, phenotypic assay) is reported as 48000 nM.
